Target: BRAF^V600E protein (Homo sapiens, UniProt P15056, V600E)
Assay: HiBiT cellular BRAF V600E degradation assay
Assay type: cell-based
Details: 24 h incubation; for DC50: A375.10 cells (HiBiT tag knocked in at N-terminal of BRAF V600E), concentration at which 50% of total cellular BRAF V600E is degraded; for Emax: A375.10 cells, Emax = amount of residual protein remaining in the cell after compound treatment, read-out: HiBit 24 h Emax

BRAF^V600E protein, sequence (P15056 whole entry V600E): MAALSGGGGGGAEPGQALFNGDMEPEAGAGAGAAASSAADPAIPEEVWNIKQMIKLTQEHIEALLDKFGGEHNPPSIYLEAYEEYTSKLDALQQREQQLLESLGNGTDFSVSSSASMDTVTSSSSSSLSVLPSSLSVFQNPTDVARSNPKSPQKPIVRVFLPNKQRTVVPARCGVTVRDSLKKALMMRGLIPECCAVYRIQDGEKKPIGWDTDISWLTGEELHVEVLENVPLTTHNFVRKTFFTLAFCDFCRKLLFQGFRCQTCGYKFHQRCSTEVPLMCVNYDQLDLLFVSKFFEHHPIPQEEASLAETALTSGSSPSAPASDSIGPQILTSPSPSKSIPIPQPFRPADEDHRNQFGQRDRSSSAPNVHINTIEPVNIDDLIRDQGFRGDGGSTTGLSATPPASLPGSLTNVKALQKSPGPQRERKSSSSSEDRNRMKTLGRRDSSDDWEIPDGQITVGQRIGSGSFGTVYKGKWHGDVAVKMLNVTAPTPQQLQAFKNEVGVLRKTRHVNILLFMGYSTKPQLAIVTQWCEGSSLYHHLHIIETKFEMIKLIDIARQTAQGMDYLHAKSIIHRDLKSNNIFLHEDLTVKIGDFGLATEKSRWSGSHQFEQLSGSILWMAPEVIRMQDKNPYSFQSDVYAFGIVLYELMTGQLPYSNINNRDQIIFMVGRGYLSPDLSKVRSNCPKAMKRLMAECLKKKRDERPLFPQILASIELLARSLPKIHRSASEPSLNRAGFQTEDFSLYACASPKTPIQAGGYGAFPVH

| Structure (SMILES) | DC50 [µM] | Emax [%] |
| --- | --- | --- |
| CCN(C)S(=O)(=O)Nc1ccc(F)c(C(=O)c2c[nH]c3ncc(-c4cnc(N5CC[C@@H](CC(=O)N6CCC(c7ccc(NC8CCC(=O)NC8=O)cc7)CC6)C5)nc4)cc23)c1F (stereo partly drawn) [Example 131, 5-[2-[(3S)-3-[2-[4-[4-[(2,6-dioxo-3-piperidyl)amino]phenyl]-1-piperidyl]-2-oxo-ethyl]pyrrolidin-1-yl]pyrimidin-5-yl]-3-[3-[[ethyl(methyl)sulfamoyl]amino]-2,6-difluoro-benzoyl]-1H-pyrrolo[2,3-b]pyridine] | 0.0271 | 21.2 |
| CCN(C)S(=O)(=O)Nc1ccc(F)c(C(=O)c2c[nH]c3ncc(-c4cnc(N5CC6(CC(C(=O)N7CCC(c8ccc(NC9CCC(=O)NC9=O)cc8)CC7)C6)C5)nc4)cc23)c1F (stereo not drawn) [Example 132, 5-[2-[6-[4-[4-[(2,6-dioxo-3-piperidyl)amino]phenyl]piperidine-1-carbonyl]-2-azaspiro[3.3]heptan-2-yl]pyrimidin-5-yl]-3-[3-[[ethyl(methyl)sulfamoyl]amino]-2,6-difluoro-benzoyl]-1H-pyrrolo[2,3-b]pyridine] | 0.0182 | 12 |
| CCN(C)S(=O)(=O)Nc1ccc(F)c(C(=O)c2c[nH]c3ncc(-c4cnc(N5CC6(CC(CC(=O)N7CCC(c8ccc(NC9CCC(=O)NC9=O)cc8)CC7)C6)C5)nc4)cc23)c1F (stereo not drawn) [Example 133, 5-[2-[6-[2-[4-[4-[(2,6-dioxo-3-piperidyl)amino]phenyl]-1-piperidyl]-2-oxo-ethyl]-2-azaspiro[3.3]heptan-2-yl]pyrimidin-5-yl]-3-[3-[[ethyl(methyl)sulfamoyl]amino]-2,6-difluoro-benzoyl]-1H-pyrrolo[2,3-b]pyridine] | 0.0147 | 11.4 |
| CCN(C)S(=O)(=O)Nc1ccc(F)c(C(=O)c2c[nH]c3ncc(-c4cnc(N5CCC(CC(=O)NC6CCN(c7ccc(NC8CCC(=O)NC8=O)cc7F)CC6)CC5)nc4)cc23)c1F (stereo not drawn) [Example 134, N-[1-[4-[(2,6-dioxo-3-piperidyl)amino]-2-fluoro-phenyl]-4-piperidyl]-2-[1-[5-[3-[3-[[ethyl(methyl)sulfamoyl]amino]-2,6-difluoro-benzoyl]-1H-pyrrolo[2,3-b]pyridin-5-yl]pyrimidin-2-yl]-4-piperidyl]acetamide] | 0.0189 | 11 |
| CCN(C)S(=O)(=O)Nc1ccc(F)c(C(=O)c2c[nH]c3ncc(-c4cnc(N5CCC(NC(=O)C6CCN(c7ccc(NC8CCC(=O)NC8=O)cc7F)CC6)CC5)nc4)cc23)c1F (stereo not drawn) [Example 136, 1-[4-[(2,6-dioxo-3-piperidyl)amino]-2-fluoro-phenyl]-N-[1-[5-[3-[3-[[ethyl(methyl)sulfamoyl]amino]-2,6-difluoro-benzoyl]-1H-pyrrolo[2,3-b]pyridin-5-yl]pyrimidin-2-yl]-4-piperidyl]piperidine-4-carboxamide] | 0.00326 | 7.37 |
| CCN(C)S(=O)(=O)Nc1ccc(F)c(C(=O)c2c[nH]c3ncc(-c4cnc(N5CCN(C(=O)NC6CCN(c7ccc(NC8CCC(=O)NC8=O)cc7F)CC6)CC5)nc4)cc23)c1F (stereo not drawn) [Example 138, N-[1-[4-[(2,6-dioxo-3-piperidyl)amino]-2-fluoro-phenyl]-4-piperidyl]-4-[5-[3-[3-[[ethyl(methyl)sulfamoyl]amino]-2,6-difluoro-benzoyl]-1H-pyrrolo[2,3-b]pyridin-5-yl]pyrimidin-2-yl]piperazine-1-carboxamide] | 0.0105 | 7.71 |
| CCN(C)S(=O)(=O)Nc1ccc(F)c(C(=O)c2c[nH]c3ncc(-c4ccc(N5CCN(C(=O)NC6CCN(c7ccc(NC8CCC(=O)NC8=O)cc7F)CC6)CC5)nc4)cc23)c1F (stereo not drawn) [Example 140, N-[1-[4-[(2,6-dioxo-3-piperidyl)amino]-2-fluoro-phenyl]-4-piperidyl]-4-[5-[3-[3-[[ethyl(methyl)sulfamoyl]amino]-2,6-difluoro-benzoyl]-1H-pyrrolo[2,3-b]pyridin-5-yl]-2-pyridyl]piperazine-1-carboxamide] | 0.0152 | 8.77 |
| CCN(C)S(=O)(=O)Nc1cccc(C(=O)c2c[nH]c3ncc(-c4cnc(N5CCN(C(=O)NC6CCN(c7ccc(NC8CCC(=O)NC8=O)cc7F)CC6)CC5)nc4)cc23)c1F (stereo not drawn) [Example 141, N-[1-[4-[(2,6-dioxo-3-piperidyl)amino]-2-fluoro-phenyl]-4-piperidyl]-4-[5-[3-[3-[[ethyl(methyl)sulfamoyl]amino]-2-fluoro-benzoyl]-1H-pyrrolo[2,3-b]pyridin-5-yl]pyrimidin-2-yl]piperazine-1-carboxamide] | 0.00284 | 7.91 |
| CCN(C)S(=O)(=O)Nc1ccc(F)c(C(=O)c2c[nH]c3ncc(-c4ccc(N5CCN(CCN6CCC(c7ccc(NC8CCC(=O)NC8=O)cc7)CC6)CC5)nc4)cc23)c1F (stereo not drawn) [Example 143, 5-[6-[4-[2-[4-[4-[(2,6-dioxo-3-piperidyl)amino]phenyl]-1-piperidyl]ethyl]piperazin-1-yl]-3-pyridyl]-3-[3-[[ethyl(methyl)sulfamoyl]amino]-2,6-difluoro-benzoyl]-1H-pyrrolo[2,3-b]pyridine] | 0.00404 | 11.5 |
| CCN(C)S(=O)(=O)Nc1ccc(F)c(C(=O)c2c[nH]c3ncc(-c4ccc(N5CCN(CCN6CCC(c7ccc(OC8CCC(=O)NC8=O)cc7)CC6)CC5)nc4)cc23)c1F (stereo not drawn) [Example 144, 5-[6-[4-[2-[4-[4-[(2,6-dioxo-3-piperidyl)oxy]phenyl]-1-piperidyl]ethyl]piperazin-1-yl]-3-pyridyl]-3-[3-[[ethyl(methyl)sulfamoyl]amino]-2,6-difluoro-benzoyl]-1H-pyrrolo[2,3-b]pyridine] | 0.0161 | 15.6 |
| CCN(C)S(=O)(=O)Nc1ccc(F)c(C(=O)c2c[nH]c3ncc(-c4cnc(N5CCN(CCN6CCC(c7ccc(NC8CCC(=O)NC8=O)cc7)CC6=O)CC5)nc4)cc23)c1F (stereo not drawn) [Example 146, 5-[2-[4-[2-[4-[4-[(2,6-dioxo-3-piperidyl)amino]phenyl]-2-oxo-1-piperidyl]ethyl]piperazin-1-yl]pyrimidin-5-yl]-3-[3-[[ethyl(methyl)sulfamoyl]amino]-2,6-difluoro-benzoyl]-1H-pyrrolo[2,3-b]pyridine] | 0.0144 | 9.32 |
| CCN(C)S(=O)(=O)Nc1ccc(F)c(C(=O)c2c[nH]c3ncc(-c4ccc(N5CCN(CCN6CCC(c7ccc(OC8CCC(=O)NC8=O)cc7)CC6)C(=O)C5)nc4)cc23)c1F (stereo not drawn) [Example 147, 5-[6-[4-[2-[4-[4-[(2,6-dioxo-3-piperidyl)oxy]phenyl]-1-piperidyl]ethyl]-3-oxo-piperazin-1-yl]-3-pyridyl]-3-[3-[[ethyl(methyl)sulfamoyl]amino]-2,6-difluoro-benzoyl]-1H-pyrrolo[2,3-b]pyridine] | 0.0172 | 14.6 |
| CCN(C)S(=O)(=O)Nc1ccc(F)c(C(=O)c2c[nH]c3ncc(-c4ccc(N5CCN(CCC6CCN(c7ccc(NC8CCC(=O)NC8=O)cc7)CC6)C(=O)C5)nc4)cc23)c1F (stereo not drawn) [Example 148, 5-[6-[4-[2-[1-[4-[(2,6-dioxo-3-piperidyl)amino]phenyl]-4-piperidyl]ethyl]-3-oxo-piperazin-1-yl]-3-pyridyl]-3-[3-[[ethyl(methyl)sulfamoyl]amino]-2,6-difluoro-benzoyl]-1H-pyrrolo[2,3-b]pyridine] | 0.0198 | 13.9 |
| CCN(C)S(=O)(=O)Nc1ccc(F)c(C(=O)c2c[nH]c3ncc(-c4cnc(N5CCC(O)(CCN6CCC(c7ccc(NC8CCC(=O)NC8=O)cc7)CC6)CC5)nc4)cc23)c1F (stereo not drawn) [Example 149, 5-[2-[4-[2-[4-[4-[(2,6-dioxo-3-piperidyl)amino]phenyl]-1-piperidyl]ethyl]-4-hydroxy-1-piperidyl]pyrimidin-5-yl]-3-[3-[[ethyl(methyl)sulfamoyl]amino]-2,6-difluoro-benzoyl]-1H-pyrrolo[2,3-b]pyridine] | 0.00925 | 10.6 |
| CCN(C)S(=O)(=O)Nc1ccc(F)c(C(=O)c2c[nH]c3ncc(-c4cnc(N5CCc6c(CN7CCC(c8ccc(NC9CCC(=O)NC9=O)cc8)CC7)cccc6C5)nc4)cc23)c1F (stereo not drawn) [Example 150, 5-[[4-[4-[(2,6-dioxo-3-piperidyl)amino]phenyl]-1-piperidyl]methyl]-2-[5-[3-[3-[[ethyl(methyl)sulfamoyl]amino]-2,6-difluoro-benzoyl]-1H-pyrrolo[2,3-b]pyridin-5-yl]pyrimidin-2-yl]-3,4-dihydro-1H-isoquinoline] | 0.0328 | 13.3 |
| CCN(C)S(=O)(=O)Nc1ccc(F)c(C(=O)c2c[nH]c3ncc(-c4cnc(N5CC6(CC(N7CCC(c8ccc(NC9CCC(=O)NC9=O)cc8)CC7)C6)C5)nc4)cc23)c1F (stereo not drawn) [Example 151, 5-[2-[6-[4-[4-[(2,6-dioxo-3-piperidyl)amino]phenyl]-1-piperidyl]-2-azaspiro[3.3]heptan-2-yl]pyrimidin-5-yl]-3-[3-[[ethyl(methyl)sulfamoyl]amino]-2,6-difluoro-benzoyl]-1H-pyrrolo[2,3-b]pyridine] | 0.00185 | 6.38 |
| CCN(C)S(=O)(=O)Nc1ccc(F)c(C(=O)c2c[nH]c3ncc(-c4cnc(N5CCC(n6cc7c(n6)CCN(c6ccc(NC8CCC(=O)NC8=O)cc6)C7)CC5)nc4)cc23)c1F (stereo not drawn) [Example 152, 5-[4-[(2,6-dioxo-3-piperidyl)amino]phenyl]-2-[1-[5-[3-[3-[[ethyl(methyl)sulfamoyl]amino]-2,6-difluoro-benzoyl]-1H-pyrrolo[2,3-b]pyridin-5-yl]pyrimidin-2-yl]-4-piperidyl]-6,7-dihydro-4H-pyrazolo[4,3-c]pyridine] | 0.0166 | 11.9 |
| CCN(C)S(=O)(=O)Nc1cccc(C(=O)c2c[nH]c3ncc(-c4ccc(N5CCN(C(=O)NC6CCN(c7ccc(NC8CCC(=O)NC8=O)cc7F)CC6)CC5)nc4)cc23)c1F (stereo not drawn) [Example 154, N-[1-[4-[(2,6-dioxo-3-piperidyl)amino]-2-fluoro-phenyl]-4-piperidyl]-4-[5-[3-[3-[[ethyl(methyl)sulfamoyl]amino]-2-fluoro-benzoyl]-1H-pyrrolo[2,3-b]pyridin-5-yl]-2-pyridyl]piperazine-1-carboxamide] | 0.00294 | 8.25 |

From patent US12559492B2, “BRAF degraders” (C4 Therapeutics, Inc., priority 2020, dated 2026)
